Common to all, as to assay: AlphaScreen in vitro demethylase assay
Assay type in all cases: biochemical
A general note: In Alpha technology, singlet oxygen from a donor bead excites a nearby acceptor bead.

For one assay, the target named is T1, KDM4B (Homo sapiens, UniProt O94953).
T1 sequence (O94953 1-1096): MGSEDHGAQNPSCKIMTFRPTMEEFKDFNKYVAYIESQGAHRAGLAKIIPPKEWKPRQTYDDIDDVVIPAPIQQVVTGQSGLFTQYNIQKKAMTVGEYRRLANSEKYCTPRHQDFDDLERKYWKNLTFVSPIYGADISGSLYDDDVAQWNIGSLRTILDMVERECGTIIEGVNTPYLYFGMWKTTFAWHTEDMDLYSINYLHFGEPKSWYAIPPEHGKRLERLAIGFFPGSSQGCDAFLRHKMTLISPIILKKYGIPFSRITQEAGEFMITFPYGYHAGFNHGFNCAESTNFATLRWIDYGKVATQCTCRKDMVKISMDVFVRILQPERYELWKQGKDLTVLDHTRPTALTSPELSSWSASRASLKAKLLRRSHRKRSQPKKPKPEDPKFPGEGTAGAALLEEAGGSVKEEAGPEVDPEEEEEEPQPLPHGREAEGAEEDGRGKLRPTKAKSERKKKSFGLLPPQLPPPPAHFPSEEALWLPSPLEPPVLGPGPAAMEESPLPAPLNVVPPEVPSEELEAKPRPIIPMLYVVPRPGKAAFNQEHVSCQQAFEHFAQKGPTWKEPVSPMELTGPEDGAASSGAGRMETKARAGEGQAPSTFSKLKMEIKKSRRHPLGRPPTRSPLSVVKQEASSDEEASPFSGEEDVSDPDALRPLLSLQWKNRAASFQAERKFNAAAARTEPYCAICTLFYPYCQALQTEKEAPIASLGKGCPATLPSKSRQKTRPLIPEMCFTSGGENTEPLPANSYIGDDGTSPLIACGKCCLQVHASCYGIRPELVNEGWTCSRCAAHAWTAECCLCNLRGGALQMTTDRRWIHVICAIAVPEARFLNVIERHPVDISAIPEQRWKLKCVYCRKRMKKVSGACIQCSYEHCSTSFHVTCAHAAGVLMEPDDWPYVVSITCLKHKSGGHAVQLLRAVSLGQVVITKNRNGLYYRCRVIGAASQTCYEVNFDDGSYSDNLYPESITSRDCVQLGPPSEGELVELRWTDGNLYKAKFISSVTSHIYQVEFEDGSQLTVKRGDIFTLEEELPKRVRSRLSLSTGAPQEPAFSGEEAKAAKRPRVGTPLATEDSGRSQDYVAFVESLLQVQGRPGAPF
The note with it: IC50 ± SD (number of replicates). As to the method:
(§1) IC50 values were determined as previously described. The following amendments were made to the protocol for carrying out 2-OG competition assays.

A further assay deals with T2, KDM4A (Homo sapiens, UniProt O75164).
T2 sequence (O75164 1-1064): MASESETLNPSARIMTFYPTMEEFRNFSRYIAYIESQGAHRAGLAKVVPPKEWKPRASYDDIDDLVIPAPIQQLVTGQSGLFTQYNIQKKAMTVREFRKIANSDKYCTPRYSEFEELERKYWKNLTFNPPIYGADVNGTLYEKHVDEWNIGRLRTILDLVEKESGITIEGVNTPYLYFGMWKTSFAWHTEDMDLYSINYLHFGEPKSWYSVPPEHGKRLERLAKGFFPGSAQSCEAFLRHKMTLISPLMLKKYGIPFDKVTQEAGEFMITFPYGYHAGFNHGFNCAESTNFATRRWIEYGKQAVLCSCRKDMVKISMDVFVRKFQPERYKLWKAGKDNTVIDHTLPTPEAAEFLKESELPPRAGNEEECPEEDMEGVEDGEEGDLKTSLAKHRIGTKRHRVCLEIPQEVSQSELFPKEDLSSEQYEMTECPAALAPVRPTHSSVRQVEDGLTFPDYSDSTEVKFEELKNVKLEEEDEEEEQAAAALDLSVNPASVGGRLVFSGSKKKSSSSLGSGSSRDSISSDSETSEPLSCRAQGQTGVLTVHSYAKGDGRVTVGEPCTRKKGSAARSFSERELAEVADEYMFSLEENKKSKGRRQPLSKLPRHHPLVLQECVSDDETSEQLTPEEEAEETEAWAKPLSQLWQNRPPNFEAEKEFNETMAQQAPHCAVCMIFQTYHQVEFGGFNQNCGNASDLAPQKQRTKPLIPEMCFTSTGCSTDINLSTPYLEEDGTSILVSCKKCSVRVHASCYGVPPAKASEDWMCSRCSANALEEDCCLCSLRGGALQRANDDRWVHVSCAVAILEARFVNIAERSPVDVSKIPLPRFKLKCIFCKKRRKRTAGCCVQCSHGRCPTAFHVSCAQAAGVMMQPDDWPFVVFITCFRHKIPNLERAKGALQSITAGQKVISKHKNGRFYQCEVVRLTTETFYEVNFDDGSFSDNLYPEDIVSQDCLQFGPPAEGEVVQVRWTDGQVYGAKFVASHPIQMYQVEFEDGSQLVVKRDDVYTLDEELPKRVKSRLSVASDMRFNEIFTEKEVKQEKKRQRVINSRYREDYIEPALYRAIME
The note with it: IC50 ± SD (number of replicates). As to the method:
as §1

The next assay concerns the target KDM6B (Homo sapiens, UniProt O15054). The conditions noted are these: AlphaScreen; IC50 ± SD (number of replicates); read-out: KDM6B IC50, in vitro. The procedure:
as §1

The IC50 is the point on the concentration scale where inhibition reaches its midpoint.

Chain of KDM6B (O15054 whole entry): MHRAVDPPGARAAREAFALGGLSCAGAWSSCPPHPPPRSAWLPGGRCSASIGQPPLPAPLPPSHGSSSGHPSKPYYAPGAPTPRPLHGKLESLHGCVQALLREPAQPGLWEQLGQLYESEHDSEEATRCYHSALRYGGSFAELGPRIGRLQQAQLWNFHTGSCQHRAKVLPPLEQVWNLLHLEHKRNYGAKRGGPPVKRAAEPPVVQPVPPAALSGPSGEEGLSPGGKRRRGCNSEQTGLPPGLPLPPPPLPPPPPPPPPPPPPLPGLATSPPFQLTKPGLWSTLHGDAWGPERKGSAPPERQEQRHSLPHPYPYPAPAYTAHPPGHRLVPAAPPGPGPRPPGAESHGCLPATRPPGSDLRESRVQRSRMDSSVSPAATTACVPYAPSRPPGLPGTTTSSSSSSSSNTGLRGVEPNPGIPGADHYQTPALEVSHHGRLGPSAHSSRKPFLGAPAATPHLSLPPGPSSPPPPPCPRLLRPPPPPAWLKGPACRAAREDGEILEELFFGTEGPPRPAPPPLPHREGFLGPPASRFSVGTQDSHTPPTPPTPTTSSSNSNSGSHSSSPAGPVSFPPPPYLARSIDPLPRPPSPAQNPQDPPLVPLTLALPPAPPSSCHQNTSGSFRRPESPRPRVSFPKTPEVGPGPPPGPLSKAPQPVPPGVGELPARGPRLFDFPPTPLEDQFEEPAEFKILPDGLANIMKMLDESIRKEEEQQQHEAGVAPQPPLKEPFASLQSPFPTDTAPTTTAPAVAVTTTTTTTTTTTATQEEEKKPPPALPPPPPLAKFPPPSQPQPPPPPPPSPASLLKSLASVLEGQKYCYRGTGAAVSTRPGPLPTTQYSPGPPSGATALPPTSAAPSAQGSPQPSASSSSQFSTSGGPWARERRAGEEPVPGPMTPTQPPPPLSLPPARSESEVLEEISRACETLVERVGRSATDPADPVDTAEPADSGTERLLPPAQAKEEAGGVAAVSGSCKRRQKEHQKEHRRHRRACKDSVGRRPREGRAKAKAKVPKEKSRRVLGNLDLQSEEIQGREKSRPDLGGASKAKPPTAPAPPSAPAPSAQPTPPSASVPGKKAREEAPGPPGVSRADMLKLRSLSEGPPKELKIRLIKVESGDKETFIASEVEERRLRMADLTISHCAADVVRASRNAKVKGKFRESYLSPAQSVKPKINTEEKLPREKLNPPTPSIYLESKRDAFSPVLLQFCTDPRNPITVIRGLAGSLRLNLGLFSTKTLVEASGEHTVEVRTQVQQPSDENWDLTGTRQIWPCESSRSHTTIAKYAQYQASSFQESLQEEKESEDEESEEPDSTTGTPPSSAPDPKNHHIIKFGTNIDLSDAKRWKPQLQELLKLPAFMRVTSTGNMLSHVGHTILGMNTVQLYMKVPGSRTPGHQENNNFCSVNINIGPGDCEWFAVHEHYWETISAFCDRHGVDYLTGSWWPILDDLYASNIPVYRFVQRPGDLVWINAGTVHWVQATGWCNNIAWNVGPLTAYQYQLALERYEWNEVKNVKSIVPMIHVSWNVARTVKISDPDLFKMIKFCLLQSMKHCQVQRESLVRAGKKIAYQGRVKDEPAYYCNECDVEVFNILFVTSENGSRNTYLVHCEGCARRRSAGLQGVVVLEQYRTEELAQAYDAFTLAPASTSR

Take `O=c1[nH]cnc2c(-n3cc(CCN4CCC(c5cccc(Cl)c5)CC4)cn3)cccc12` [CCT366293, 8-(4-(2-(4-(3-Chlorophenyl)piperidin-1-yl)ethyl)-1H-pyrazol-1-yl)quinazolin-4(3H)-one]: the IC50 against KDM4B and against KDM4A was above 10 µM throughout.

On to `CCN(CCN(C)C)C(=O)CNCc1cc(C(=O)O)ccn1` [KDOAM-20], for which the IC50 at KDM4B turned out to be 0.099 µM; against KDM4A, 0.67 ± 0.23 µM; at KDM6B it was 1.4 ± 0.45 µM.

Turning to `CCOC(=O)c1ccnc(CNCC(=O)N(CC)CCN(C)C)c1` [KDOAM-21], the values for the IC50 at KDM4B, on KDM4A and on KDM6B were 2.5 µM, 11 ± 4.5 µM and 11 ± 4.6 µM, respectively.

For CPI-455, the results for the IC50 against KDM4B, at KDM4A and on KDM6B were 44 µM, 31 µM and above 100 µM, respectively.

For the origin of these results see article PMC5333395, “Assessing histone demethylase inhibitors in cells: lessons learned” (Epigenetics & Chromatin, 2017).
